Experiments:
NBD1 = target: T1, NBD1 (Homo sapiens, UniProt P13569); assay: Aggregation analysis using differential static light scattering (DSLS), thermal stability of NBD1 (ΔTagg); assay type: binding; settings: ΔTagg versus DMSO control, NBD1 0.2 mg/ml
T1 construct: Purified recombinant NBD1 was produced using previously described methods; made in house
Procedure, shortened: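 NBD1 0.2 mg/ml, S200 buffer (50 mM Tris-HCl, 150 mM NaCl, 5 mM MgCl2, 2 mM ATP, 2 mM DTT, pH7.6) + 1% glycerol; cpd in DMSO; oil overlay. Ramp 25→70° C. at 1° C./min, DSLS images every 0.5° C. ΔTagg = Tagg (inflection) − mean DMSO Tagg.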

CFTR = target: T2, CFTR (Homo sapiens, UniProt P13569, DEL508-508); assay: TECC24 AUC fold over DMSO @10 μM, CFTR-mediated transepithelial chloride transport in CF-HBE cells; assay type: cell-based; settings: test agent AUC divided by DMSO vehicle AUC, primary CF-HBE cells, ΔF508 homozygous donor, 48 hours incubation
T2 construct: Primary human bronchial epithelial cells from a ΔF508 homozygous CF donor; host or cells: primary human bronchial epithelial cells (CF-HBE), ΔF508 homozygous donor
T2 sequence (P13569 with tags, fused parts or gaps DEL508-508): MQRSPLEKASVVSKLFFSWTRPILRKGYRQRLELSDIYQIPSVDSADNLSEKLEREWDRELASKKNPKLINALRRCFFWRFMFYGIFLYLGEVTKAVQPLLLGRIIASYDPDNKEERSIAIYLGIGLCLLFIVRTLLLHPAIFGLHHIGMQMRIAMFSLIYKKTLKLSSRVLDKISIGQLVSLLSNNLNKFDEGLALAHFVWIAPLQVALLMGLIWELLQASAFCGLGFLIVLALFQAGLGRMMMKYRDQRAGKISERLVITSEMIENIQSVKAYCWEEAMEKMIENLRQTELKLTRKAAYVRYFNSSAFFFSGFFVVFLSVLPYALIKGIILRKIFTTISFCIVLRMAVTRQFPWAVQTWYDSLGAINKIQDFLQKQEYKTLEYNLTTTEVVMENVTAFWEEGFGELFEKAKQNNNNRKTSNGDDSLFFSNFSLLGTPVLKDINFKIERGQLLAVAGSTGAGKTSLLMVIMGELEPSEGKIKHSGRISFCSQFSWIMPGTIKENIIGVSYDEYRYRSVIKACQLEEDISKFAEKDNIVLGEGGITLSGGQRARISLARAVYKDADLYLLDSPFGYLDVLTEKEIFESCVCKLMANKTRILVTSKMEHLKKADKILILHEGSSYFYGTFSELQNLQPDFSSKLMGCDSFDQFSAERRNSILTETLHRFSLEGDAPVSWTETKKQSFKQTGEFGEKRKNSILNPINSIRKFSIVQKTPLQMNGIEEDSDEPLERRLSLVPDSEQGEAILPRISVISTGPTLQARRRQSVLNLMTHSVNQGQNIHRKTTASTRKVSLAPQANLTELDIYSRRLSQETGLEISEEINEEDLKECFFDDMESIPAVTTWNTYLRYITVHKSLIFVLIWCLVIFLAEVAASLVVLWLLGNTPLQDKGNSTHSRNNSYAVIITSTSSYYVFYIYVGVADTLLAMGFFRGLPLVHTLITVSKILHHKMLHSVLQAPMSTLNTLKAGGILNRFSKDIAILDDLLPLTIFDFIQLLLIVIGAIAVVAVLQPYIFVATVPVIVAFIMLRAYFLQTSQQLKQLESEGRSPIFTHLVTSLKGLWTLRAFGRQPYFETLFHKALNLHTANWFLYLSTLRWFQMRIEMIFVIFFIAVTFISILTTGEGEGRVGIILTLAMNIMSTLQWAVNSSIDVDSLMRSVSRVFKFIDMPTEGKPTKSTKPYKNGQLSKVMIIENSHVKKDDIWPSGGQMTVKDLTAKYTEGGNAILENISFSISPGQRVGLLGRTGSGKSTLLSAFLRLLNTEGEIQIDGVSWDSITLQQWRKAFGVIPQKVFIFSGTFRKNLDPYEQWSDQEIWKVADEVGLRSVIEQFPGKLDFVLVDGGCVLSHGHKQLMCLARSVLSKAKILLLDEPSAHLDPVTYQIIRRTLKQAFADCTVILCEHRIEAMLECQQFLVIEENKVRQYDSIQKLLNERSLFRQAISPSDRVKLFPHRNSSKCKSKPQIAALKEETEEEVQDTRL
Procedure, shortened: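 ΔF508-homozygous primary bronchial epithelial cells incubated 48 h at 36.5° C with compound (10 μM) in IL-13-containing medium, then TECC24 current-clamp recording in pH 7.4 Hepes saline with benzamil 10 μM, forskolin 10 μM, then CFTR inhibitor-172 20 μM. Equivalent Cl− current AUC between forskolin and inhibitor, expressed as fold over DMSO.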

T1 sequence (P13569 423-646 limits assumed): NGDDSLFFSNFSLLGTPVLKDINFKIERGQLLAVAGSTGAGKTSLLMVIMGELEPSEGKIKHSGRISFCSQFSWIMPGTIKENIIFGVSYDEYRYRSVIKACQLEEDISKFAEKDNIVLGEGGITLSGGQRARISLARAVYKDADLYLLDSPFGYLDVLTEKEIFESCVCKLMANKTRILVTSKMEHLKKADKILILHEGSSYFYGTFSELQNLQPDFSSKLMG

| SMILES | DSLS 3D (100 μM ΔT) (NBD1) | TECC (AUC, 10 μM) (CFTR) |
| --- | --- | --- |
| C[C@@H](Cc1cccc([C@@]2(C)CCCC(C)(C)CS(=O)(=O)CCc3c(c(F)cc4[nH]ccc34)[S+]([O-])c3ccnc(c3)-c3nc2cs3)c1)C(=O)O (single isomer, unassigned) [Compound 239B] | A (an ΔTagg value less than or equal to 5 °C is marked “A”) | A (a TECC value less than 12 is marked “A”) |
| C[C@H](Cc1cccc([C@@]2(C)CCCC(C)(C)CS(=O)(=O)CCc3c(c(F)cc4[nH]ccc34)[S+]([O-])c3ccc(F)c(c3)-c3nc2nn3C)c1)C(=O)O (single isomer, unassigned) [Compound 206A] | C (a value greater than 10 °C and less than or equal to 25 °C is marked “C”) | C (a value between 20 and 80 is marked “C”) |
| C[C@@H](Cc1cccc([C@@]2(C)CCCC(C)(C)CS(=O)(=O)CCc3c(c(F)c(F)c4[nH]ccc34)[S+]([O-])c3ccc(F)c(c3)-c3nc2nn3C)c1)C(=O)O (single isomer, unassigned) [Compound 225A] | B (a value above 5 °C and less than or equal to 10 °C is marked “B”) | C (a value between 20 and 80 is marked “C”) |
| Cn1nc2nc1-c1cccc(c1)Oc1c(F)cc3[nH]ccc3c1CCS(=O)(=O)CC(C)(C)CCCC2(C)c1cccc(CCC(=O)O)c1 (single isomer, unassigned) [Compound 95A, 3-[3-(22-fluoro-3,6,10,10-tetramethyl-12,12-dioxo-24-oxa-12λ6-thia-3,4,19,30-tetrazapentacyclo[23.3.1.12,5.015,23.016,20]triaconta-1(29),2(30),4,15,17,20,22,25,27-nonaen-6-yl)phenyl]propanoic Acid] | A (an ΔTagg value less than or equal to 5 °C is marked “A”) | A (a TECC value less than 12 is marked “A”) |
| C[C@@H](Cc1cccc(C2(C)CCCC(C)(C)CS(=O)(=O)CCc3c(c(F)cc4[nH]ccc34)Oc3ccc(F)c(c3)-c3nc2nn3C)c1)C(=O)OCc1coc(=O)o1 (single isomer, unassigned) [Compound 144] | C (a value greater than 10 °C and less than or equal to 25 °C is marked “C”) | B (a value between 12-20 is marked “B”) |
| Cn1nc2nc1-c1cc(ccc1F)[S+]([O-])c1c(F)cc3[nH]ccc3c1CCS(=O)(=O)CC(C)(C)CCC[C@]2(C)c1cccc(CCC(=O)O)c1 (single isomer, unassigned) [Compound 215A] | C (a value greater than 10 °C and less than or equal to 25 °C is marked “C”) | A (a TECC value less than 12 is marked “A”) |
| Cn1nc2nc1-c1cc(ccc1F)Oc1c(F)cc3[nH]ccc3c1CCS(=O)(=O)CC(C)(C)C(F)(F)CCC2(C)c1cccc(CCC(=O)O)c1 (centres unmarked) [Compound 106, 3-[3-(9,9,22,28-Tetrafluoro-3,6,10,10-tetramethyl-12,12-dioxo-24-oxa-12lambda6-thia-3,4,19,30-tetrazapentacyclo[23.3.1.12,5.015,23.016,20]triaconta-1(29),2(30),4,15,17,20,22,25,27-nonaen-6-yl)phenyl]propanoic Acid] | C (a value greater than 10 °C and less than or equal to 25 °C is marked “C”) | A (a TECC value less than 12 is marked “A”) |
| Cn1nc2nc1C(C)(c1cccc(CCC(=O)O)c1)CCCC(C)(C)CS(=O)(=O)CCc1c(c(F)cc3[nH]ccc13)Oc1ccc(F)c-2c1 (single isomer, unassigned) [Compound 55B, 3-[3-(22,28-difluoro-4,6,10,10-tetramethyl-12,12-dioxo-24-oxa-12 lambda6-thia-3,4,19,30-tetrazapentacyclo[23.3.1.12,5.015,23.016,20]triaconta-1(29),2,5(30),15,17,20,22,25,27-nonaen-6yl)phenyl]propanoic Acid] | B (a value above 5 °C and less than or equal to 10 °C is marked “B”) | A (a TECC value less than 12 is marked “A”) |
| Cc1cnn2c1-c1cc(ccc1F)Oc1c(F)cc3[nH]ccc3c1CCS(=O)(=O)CC(C)(C)COCC2c1cccc(CCC(=O)O)c1 (single isomer, unassigned) [Compound 85, 3-[3-(23,29-difluoro-3,11,11-trimethyl-13,13-dioxo-9,25-dioxa-13λ6-thia-5,6,20-triazapentacyclo[24.3.1.02,6.016,24.017,21]triaconta-1(30),2,4,16,18,21,23,26,28-nonaen-7-yl)phenyl]propanoic Acid] | A (an ΔTagg value less than or equal to 5 °C is marked “A”) | A (a TECC value less than 12 is marked “A”) |
| Cn1nc2nc1-c1cc(ccc1F)C(O)c1c(F)cc3[nH]ccc3c1CCS(=O)(=O)CC(C)(C)CCCC2(C)c1cccc(CCC(=O)O)c1 (single isomer, unassigned) [Compound 30C, 3-[3-(22,28-difluoro-24-hydroxy-3,6,10,10-tetramethyl-12,12-dioxo-12lambda6-thia-3,4,19,30-tetrazapentacyclo[23.3.1.12,5.015,23.016,20]triaconta-1(29),2(30),4,15,17,20,22,25,27-nonaen-6-yl)phenyl]propanoic acid] | B (a value above 5 °C and less than or equal to 10 °C is marked “B”) | C (a value between 20 and 80 is marked “C”) |
| O=S1(=O)CCc2cn(nn2)Cc2c(c(F)cc3[nH]ccc23)Oc2ccc(F)c(c2)-c2ncc([nH]2)C(c2ccccc2F)CC1 (centres unmarked) [Compound 41, 24,30-Difluoro-6-(2-fluorophenyl)-26-oxa-9λ6-thia-3,13,14,15,21,33-hexazahexacyclo[25.3.1.12,5.112,15.017,25.018,22]tritriaconta-1(31),2,4,12(32),13,17,19,22,24,27,29-undecaene 9,9-dioxide] | C (a value greater than 10 °C and less than or equal to 25 °C is marked “C”) | A (a TECC value less than 12 is marked “A”) |
| CC1(C)CCCC(C)(c2cccc(OCC(=O)O)c2)c2cnc([nH]2)-c2cc(ccc2F)Oc2c(F)cc3[nH]ccc3c2CCS(=O)(=O)C1 (single isomer, unassigned) [Compound 54B, 2-[3-(22,28-difluoro-6,10,10-trimethyl-12,12-dioxo-24-oxa-12lambda6-thia-3,19,30-triazapentacyclo[23.3.1.12,5.015,23.016,20]triaconta-1(29),2,4,15,17,20,22,25,27-nonaen-6-yl)phenoxy]acetic acid] | B (a value above 5 °C and less than or equal to 10 °C is marked “B”) | A (a TECC value less than 12 is marked “A”) |
| [2H]C([2H])([2H])C1(c2cccc(CCC(=O)O)c2)CCCC(C([2H])([2H])[2H])(C([2H])([2H])[2H])CS(=O)(=O)CCc2c(c(F)cc3[nH]ccc23)Oc2ccc(F)c(c2)-c2nc1nn2C (single isomer, unassigned) [Compound 98B, 3-[3-[22,28-difluoro-3-methyl-12,12-dioxo-6,10,10-tris(trideuteriomethyl)-24-oxa-12lambda6-thia-3,4,19,30-tetrazapentacyclo-[23.3.1.12,5.015,23.016,20]triaconta-1(29),2(30),4,15,17,20,22,25,27-nonaen-6-yl]phenyl]propanoic acid] | C (a value greater than 10 °C and less than or equal to 25 °C is marked “C”) | C (a value between 20 and 80 is marked “C”) |

Reference: patent US12649750B2, “Macrocyclic compounds, compositions, and methods of using thereof” (Sionna Therapeutics Inc., priority 2022, dated 2026)
